From patent publication US11260091B2, “Red seaweed extracts, formulations and anti-microbial uses thereof” (OCEANS LTD., priority 2017, dated 2022)

What was measured:
Assay in all cases: Liquid phase testing (bacterial growth, OD600)
[1] = tested on: resistant Staphylococcus pseudointermedius; format: cell-based, Staphylococcus pseudintermedius; settings: S. pseudo, 30 μg/ml positive control
Description: (§1) Stock solutions of extracts were prepared in dimethylsulfoxide (DMSO) at 10 mg/ml and stored in 200 μl aliquots at −20° C. until used. Two pathological agents were assessed: resistant Staphylococcus aureus and resistant Staphylococcus pseudointermedius. Three concentrations of each extract (5, 10 and 25 μg/ml) were evaluated in triplicate for each trial. Vehicle alone served as negative control. […] For selected samples, studies were repeated at 100 and 50 μg/ml.
(§2) A standard micro or mini-prep chase study was conducted. Briefly, liquid media was inoculated with a starting bolus of 0.01% bacteria and spiked with test extract at the study concentrations. Samples were incubated (shaking, 37° C.) overnight for 16 hours and bacterial growth enumerated by UV spectrometry in quadruplicate.

[2] = tested on: resistant Staphylococcus aureus; format: cell-based; settings: S. aureus, 30 μg/ml positive control
Description: as §1, §2

P. acnes = format: cell-based, Propionibacterium acnes; settings: 30 μg/ml positive control
[3] = higher concentration study (Table 4)

## O=C(N[C@H](CO)[C@H](O)c1ccc([N+](=O)[O-])cc1)C(Cl)Cl [CAP, Chloramphenicol]
[1]; Table 2
  OD600: 0.021
[1]; [3]
  OD600: 0.004
[2]; Table 2
  OD600: 0.023
[2]; [3]
  OD600: 0.002
P. acnes; Table 2
  OD600: 0.005
P. acnes; [3]
  OD600: 0.000
